pIC50: −log10 of the molar value. Where “and” joins values, the source holds several entries; their conditions need not be identical. Identical values can stand only once. Like-named read-outs stand apart in the source and are kept apart here.
What was measured:
[1] = tested on: C1498 leukemia; details: ip, 28 × 1 × 10 mg/kg/day; cited from earlier work
[2] = tested on: P1534 leukemia; details: ip, 30 × 1 × 10 mg/kg/day; cited from earlier work
[3] = tested on: L5178Y leukemia; details: ip, 28 × 1 × 10 mg/kg/day; cited from earlier work
[4] = tested on: AKR leukemia; details: ip, 28 × 1 × 10 mg/kg/day; cited from earlier work
[5] = tested on: Ehrlich ascites; details: ip, 30 × 1 × 10 mg/kg/day; cited from earlier work
[6] = tested on: Sarcoma 180; details: ip, 30 × 1 × 10 mg/kg/day; cited from earlier work
[7] = tested on: Mecca lymphosarcoma; details: ip, 30 × 1 × 10 mg/kg/day; cited from earlier work
[8] = tested on: Ridgeway osteogenic sarcoma; details: ip, 48 × 1 × 9 mg/kg/day; cited from earlier work
[9] = tested on: X5563 myeloma; details: ip, 30 × 1 × 8 mg/kg/day; cited from earlier work
[10] = tested on: Adrenocarcinoma 755; details: ip, 30 × 1 × 10 mg/kg/day; cited from earlier work
[11] = tested on: Shionogi carcinoma 115; details: ip, 36 × 1 × 9 mg/kg/day; cited from earlier work
[12] = tested on: S91 melanoma; details: ip, 36 × 1 × 9 mg/kg/day; cited from earlier work
[13] = tested on: tumors; details: literature, cited from earlier work
[14] = tested on: L5178Y cells; details: cultured L5178Y cells; cited from earlier work
[15] = tested on: DNA; details: cited from earlier work
[16] = tested on: L1210/0 cells; experiment: Cross-resistance studies: growth inhibition of doxorubicin-sensitive L1210/0 cells; format: cell-based; details: L1210/0 (doxorubicin sensitive)
[17] = tested on: BREI; experiment: Survival time evaluation, BREI (ip) in BDF1 mice; format: in vivo, mouse; set-up: Survival Time, individual mice / AST: unit not given here; details: for AST / Day 7 AWC / N/T (15 day survivors/total mice) / Survival Time, individual mice / % ILS: day 1, QDX4; for % ILS: 25% or greater indicates activity
Method: 0.2 ML BREI (ip) ca. 10 6 cells IN BDF1 (FEMALE) 19-21 g
DILUENT - COCKTAIL DIL 1:10 dextrose
SCHEDULE - DAY 1, QDX4 bid (ip) DAY 1, QDX4 per os

[18] = tested on: L1210 leukemia; experiment: L1210 leukemia survival time evaluation in BDF1 mice; details: for Day 6 AWC / MST / N/T (nine day survivors/total mice) / Survival Time, individual mice / % ILS (increase in lifespan): day 1, QDX4 ip; for % ILS (increase in lifespan): 25% or greater indicates activity

## COc1cc2c(c3c1c(=O)c1ccccc1n3C)C=CC(C)(C)O2 [Compound 1, Acronycine]
[1]
  Percent activity: 79(7) Percent
[2]
  Percent activity: 0%
[3]
  Percent activity: 62%
[4]
  Percent activity: 78(5) Percent
[5]
  Percent activity: 0(1) Percent
[6]
  Percent activity: 40(9) Percent
[7]
  Percent activity: 63(7) Percent
[8]
  Percent activity: 100(10) Percent
[9]
  Percent activity: 100(8) Percent
[10]
  Percent activity: 40(10) Percent
[11]
  Percent activity: 100(7) Percent
[12]
  Percent activity: 100(4) Percent
[13]
  antitumor activity, in words: broad spectrum of antitumor activity
[13]; listed as acronycine
  antitumor activity, in words: effective against a wide range of neoplasms
[14]
  inhibition of incorporation of extracellular nucleosides into DNA and RNA, in words: inhibit the incorporation of extracellular nuclosides into the DNA and RNA
[15]
  interaction with DNA, in words: did not interact with DNA

## COc1c(OC)c(OC)c2c(c1O)c(=O)c1ccc(O)c(OC)c1n2C [Compound 31, Glyfoline]
[16]
  pIC50: 5.68
[17]; 100 mg/kg bid ip
  AST: 14.2
  Day 7 AWC: +1.0 g
  N/T (15 day survivors/total mice): 0/5
  Survival Time, individual mice: 13 and 14 and 17
  % ILS: 18%
[17]; 500 mg/kg p.o.
  AST: > 19
  Day 7 AWC: +0.8 g
  N/T (15 day survivors/total mice): 1/5
  Survival Time, individual mice: 13 and 14 and 15 and > 40
  % ILS: > 62%
[17]; oral route
  tumorfree survival (one mouse): > 40 days
[18]; 6.25 mg/kg
  Day 6 AWC: +1.8 g
  MST: 7.0
  N/T (nine day survivors/total mice): 0/2
  Survival Time, individual mice: 7
  % ILS (increase in lifespan): 0%
[18]; 12.5 mg/kg
  Day 6 AWC: +2.0 g
  MST: 8.0
  N/T (nine day survivors/total mice): 0/2
  Survival Time, individual mice: 8
  % ILS (increase in lifespan): 14%
[18]; L1210, BDF mice, low doses, ip
  antileukemic activity, in words: some activity
